In brackets after ≈: the same amount, converted by molar mass. Where two headings read alike, the source gives them in different places.
Assays:
E. coli DNA gyrase = target: T1, E. coli DNA gyrase (Escherichia coli, UniProt P0AES4); experiment: Gyrase Supercoiling High Throughput Plate assay, E. coli; assay type: biochemical; settings: for LE DNA Gyrase E. coli: LE = (1.37/HA) × pIC50
T1 construct: purchased Inspiralis (Norwich, UK)
Method: A Gyrase Supercoiling High Throughput Plate assay kit, purchased from Inspiralis (Norwich. UK) was used to determine IC50 values of compounds on S. aureus and E. coli. […] Biotinylated oligonucleotide in wash buffer was immobilized onto the wells, and the excess oligonucleotide was washed off with wash buffer and ultrapure water. […] The reactions were stopped by adding the TF buffer (50 mM NaOAc (pH 4.7), 50 mM NaCl, and 50 mM MgCl2) to allow the triplex formation (biotin-oligonucleotide-plasmid) for additional 30 min. Afterward, the unbound plasmid was washed off using TF buffer, and the solution of Promega Diamond dye in T10 buffer (10 mM Tris-HCl (pH 8.0), 1 mM EDTA) was added. […] IC50 value represents the mean of two to four independent measurements.

E. coli D22 = experiment: MIC broth microdilution, E. coli D22; assay type: cell-based; settings: Escherichia coli
Method: Antimicrobial testing was carried out by the broth microdilution method in 96-well plate format following the Clinical and Laboratory Standards Institute (CLSI) guidelines and European Committee on Antimicrobial Susceptibility Testing (EUCAST) recommendations. Bacterial suspension of specific bacterial strain equivalent to 0.5 McFarland turbidity standard was diluted with cation-adjusted Mueller Hinton broth with TES (Thermo Fisher Diagnostic, Landsmeer, The Netherlands), to obtain a final inoculum of 10^5 CFU/mL. Compounds dissolved in DMSO and inoculum were mixed together and incubated for 18–20 h at 35 °C. Suspensions of Mycobacterium sp. were prepared into a tube of Middelbrook 7H9 broth supplemented with 5% OADC (Thermo Scientific, Trek Diagnostic Systems, West Sussex, UK) and incubated for at least 10 days. After incubation the minimal inhibitory concentration (MIC) values were determined by visual inspection as the lowest dilution of compounds showing no turbidity. Tetracycline was used as a positive control on every assay plate.

HepG2 = experiment: Metabolic activity assessment (cytotoxicity), HepG2; assay type: cell-based; settings: Homo sapiens
Method: Cells of the HepG2 line (ATCC® HB-8065™) and HUVEC (ATCC® CRL-1730™) were cultured in Dulbecco’s Modified Eagle Medium (DMEM; Sigma-Aldrich, St. Louis, MO, USA) supplemented with 10% heat-deactivated FBS (Gibco, Grand Island, NE, USA), 2 mM L-glutamine, 100 U/mL penicillin, 100 μg/mL streptomycin (all from Sigma-Aldrich, St. Louis, MO, USA) in a humidified chamber at 37 °C and 5% CO2. The experiments were carried out on passages 7–9 for both cell lines. The tested compounds were dissolved in DMSO and further diluted in culture medium to a desired final concentration. Cells were seeded into 96-well plates at 8 × 10^4 cells/mL (100 μL/well) and incubated for 24 h to attach onto the wells. Cells were treated with 1 μM and 50 μM of each compound of interest or corresponding vehicle as control. […] The metabolic activity was assessed after 72 h treatment using the CellTiter 96 Aqueous One Solution Cell Proliferation Assay (Promega, Madison, WI, USA), in accordance with the manufacturer’s instructions. The absorbance was measured at 492 nm on an automated microplate reader BioTek Synergy HT (BioTek Instruments, Inc., Winooski, VT, USA). Data are presented as the percentage of metabolic activity of control cells stimulated with vehicle or as IC50 value (mean ± SD) from two independent experiments, each conducted in duplicate or triplicate. IC50 values were calculated by a non-linear regression model using Graph Pad Prism 7 software.

[1] = target: T2, hERG potassium ion channel (Homo sapiens, UniProt Q12809); experiment: FP-based hERG binding assay (Invitrogen kit)
T2 construct: purchased Invitrogen (assay run at TCG Lifesciences Pvt. Ltd.)
Method: Cardiovascular safety profile was entirely outsourced. hERG screening was performed at TCG Lifesciences Pvt. Ltd., Kolkata, West Bengal, India with FP-based hERG binding assay (Invitrogen kit).

[2] = Equilibrium solubility at pH 6.8; settings: for solubility thermodynamic at 24 h: phosphate buffered saline, 37 °C, pH 6.8, aqueous buffer, thermodynamic from solid; for solubility at pH 6.8 in words: pH 6.8, single-dose in 500 mL
Method: Prior to the measurements of solubility and permeability isocratic HPLC methods were developed. […] The individual method parameters for each compound are given in the Supplementary Materials Table S1.
The vials were then placed in a homogenizer (Next Advance Bullet Blender, Troy, NY, USA) for 5 min ad speed setting “2” after which they were kept in a thermostated shaker (Tehtnica HeatMix, Domel, Slovenia) at 37 °C and 1200 RPM for 24 h. […] Twenty µL of these solutions were injected for the HPLC analysis by the described methods (Supplementary Materials Table S1). External standards for calibration were made in a mobile phase with 5% acetonitrile in a range of 30–90 mg/L and injected at 20 µL injection volumes.

S. aureus DNA gyrase = target: T3, S. aureus DNA gyrase (Staphylococcus aureus, UniProt P20831); experiment: gel-based S. aureus Gyrase Supercoiling assay (Inspiralis); assay type: biochemical; settings: gel-based assays by Inspiralis, as detailed in [13]
T3 construct: purchased Inspiralis (Norwich, UK)
From the text: […]. […] IC50 value represents the mean of two to four independent measurements.

[3] = D22, mutation in the lpxC gene that increases membrane permeability, read-out: MIC E. coli D22
[4] = HepG2, 72 h, metabolic activity after 72 h treatment
[5] = HepG2, metabolic activity after 72 h treatment

T1 sequence (P0AES4 whole entry): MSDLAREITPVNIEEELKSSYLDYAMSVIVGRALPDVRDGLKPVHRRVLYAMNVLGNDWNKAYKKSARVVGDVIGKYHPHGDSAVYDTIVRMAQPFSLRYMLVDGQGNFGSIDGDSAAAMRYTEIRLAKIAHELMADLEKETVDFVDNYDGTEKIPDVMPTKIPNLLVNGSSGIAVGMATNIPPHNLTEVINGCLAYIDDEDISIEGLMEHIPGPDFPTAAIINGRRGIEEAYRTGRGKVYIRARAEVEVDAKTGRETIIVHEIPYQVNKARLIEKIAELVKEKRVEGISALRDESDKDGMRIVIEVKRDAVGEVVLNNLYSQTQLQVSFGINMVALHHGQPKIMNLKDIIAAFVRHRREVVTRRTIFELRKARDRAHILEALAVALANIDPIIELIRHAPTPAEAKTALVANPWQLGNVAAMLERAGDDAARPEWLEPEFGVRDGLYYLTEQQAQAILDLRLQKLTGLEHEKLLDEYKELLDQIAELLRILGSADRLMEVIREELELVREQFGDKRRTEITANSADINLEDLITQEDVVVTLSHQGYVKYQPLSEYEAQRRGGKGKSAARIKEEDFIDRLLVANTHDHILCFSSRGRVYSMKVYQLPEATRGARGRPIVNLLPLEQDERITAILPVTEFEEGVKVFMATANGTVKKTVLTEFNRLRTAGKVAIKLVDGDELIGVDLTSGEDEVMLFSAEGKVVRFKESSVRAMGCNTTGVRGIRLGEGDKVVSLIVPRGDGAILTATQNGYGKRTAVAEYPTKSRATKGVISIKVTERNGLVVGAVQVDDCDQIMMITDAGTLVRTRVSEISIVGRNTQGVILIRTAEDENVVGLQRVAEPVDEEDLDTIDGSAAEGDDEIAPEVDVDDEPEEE
T2 sequence (Q12809 whole entry): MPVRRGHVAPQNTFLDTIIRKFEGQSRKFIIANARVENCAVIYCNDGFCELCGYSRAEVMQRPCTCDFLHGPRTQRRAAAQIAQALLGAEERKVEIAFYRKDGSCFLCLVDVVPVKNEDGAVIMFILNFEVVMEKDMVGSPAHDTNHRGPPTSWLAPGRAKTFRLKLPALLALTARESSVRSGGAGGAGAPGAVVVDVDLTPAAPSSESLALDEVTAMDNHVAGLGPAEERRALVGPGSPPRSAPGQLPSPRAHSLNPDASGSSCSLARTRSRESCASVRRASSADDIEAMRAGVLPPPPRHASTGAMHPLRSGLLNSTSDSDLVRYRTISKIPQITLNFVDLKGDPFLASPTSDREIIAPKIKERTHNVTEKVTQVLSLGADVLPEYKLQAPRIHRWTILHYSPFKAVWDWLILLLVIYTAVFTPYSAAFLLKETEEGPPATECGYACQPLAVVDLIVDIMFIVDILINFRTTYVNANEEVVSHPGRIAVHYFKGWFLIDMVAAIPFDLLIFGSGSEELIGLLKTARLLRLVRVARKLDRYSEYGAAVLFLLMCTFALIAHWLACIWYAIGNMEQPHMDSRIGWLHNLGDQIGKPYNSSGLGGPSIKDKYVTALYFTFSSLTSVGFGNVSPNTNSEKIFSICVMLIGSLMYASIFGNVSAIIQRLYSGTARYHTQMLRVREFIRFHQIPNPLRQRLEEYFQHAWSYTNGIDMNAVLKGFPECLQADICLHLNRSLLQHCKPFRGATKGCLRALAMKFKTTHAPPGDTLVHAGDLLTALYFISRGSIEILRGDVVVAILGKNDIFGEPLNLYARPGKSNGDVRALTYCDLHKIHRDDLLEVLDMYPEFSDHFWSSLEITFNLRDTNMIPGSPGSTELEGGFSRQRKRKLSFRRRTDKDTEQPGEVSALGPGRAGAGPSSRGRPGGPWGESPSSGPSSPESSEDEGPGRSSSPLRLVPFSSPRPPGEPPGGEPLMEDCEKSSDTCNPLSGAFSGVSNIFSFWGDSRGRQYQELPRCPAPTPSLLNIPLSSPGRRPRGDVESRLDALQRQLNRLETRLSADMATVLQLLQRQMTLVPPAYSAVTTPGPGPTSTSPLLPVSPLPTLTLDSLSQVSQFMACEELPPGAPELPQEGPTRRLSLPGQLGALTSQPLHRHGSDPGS
T3 sequence (P20831 whole entry): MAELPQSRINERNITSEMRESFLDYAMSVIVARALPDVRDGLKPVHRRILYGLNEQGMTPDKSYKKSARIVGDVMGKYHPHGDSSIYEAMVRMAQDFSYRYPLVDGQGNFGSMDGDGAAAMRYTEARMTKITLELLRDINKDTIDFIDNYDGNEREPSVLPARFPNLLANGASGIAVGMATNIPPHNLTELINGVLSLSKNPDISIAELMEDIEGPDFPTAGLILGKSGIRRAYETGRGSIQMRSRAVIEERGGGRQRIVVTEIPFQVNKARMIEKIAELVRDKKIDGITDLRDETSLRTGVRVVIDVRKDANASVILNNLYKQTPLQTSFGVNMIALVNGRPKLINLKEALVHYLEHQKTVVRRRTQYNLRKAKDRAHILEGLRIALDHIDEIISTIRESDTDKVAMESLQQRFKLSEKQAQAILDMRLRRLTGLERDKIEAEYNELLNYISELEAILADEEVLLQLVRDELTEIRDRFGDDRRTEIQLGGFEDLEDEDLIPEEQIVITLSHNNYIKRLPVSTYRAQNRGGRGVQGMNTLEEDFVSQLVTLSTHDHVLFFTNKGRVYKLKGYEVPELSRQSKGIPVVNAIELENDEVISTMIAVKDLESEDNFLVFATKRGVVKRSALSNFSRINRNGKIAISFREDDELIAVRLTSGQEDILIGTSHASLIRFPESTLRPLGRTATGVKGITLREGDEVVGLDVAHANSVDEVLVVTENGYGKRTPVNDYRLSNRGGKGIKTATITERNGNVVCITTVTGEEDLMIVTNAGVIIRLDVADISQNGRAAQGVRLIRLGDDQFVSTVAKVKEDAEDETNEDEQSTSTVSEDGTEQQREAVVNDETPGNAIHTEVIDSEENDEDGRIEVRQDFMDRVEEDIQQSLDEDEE
T3 sequence (P0A0K8 whole entry partner): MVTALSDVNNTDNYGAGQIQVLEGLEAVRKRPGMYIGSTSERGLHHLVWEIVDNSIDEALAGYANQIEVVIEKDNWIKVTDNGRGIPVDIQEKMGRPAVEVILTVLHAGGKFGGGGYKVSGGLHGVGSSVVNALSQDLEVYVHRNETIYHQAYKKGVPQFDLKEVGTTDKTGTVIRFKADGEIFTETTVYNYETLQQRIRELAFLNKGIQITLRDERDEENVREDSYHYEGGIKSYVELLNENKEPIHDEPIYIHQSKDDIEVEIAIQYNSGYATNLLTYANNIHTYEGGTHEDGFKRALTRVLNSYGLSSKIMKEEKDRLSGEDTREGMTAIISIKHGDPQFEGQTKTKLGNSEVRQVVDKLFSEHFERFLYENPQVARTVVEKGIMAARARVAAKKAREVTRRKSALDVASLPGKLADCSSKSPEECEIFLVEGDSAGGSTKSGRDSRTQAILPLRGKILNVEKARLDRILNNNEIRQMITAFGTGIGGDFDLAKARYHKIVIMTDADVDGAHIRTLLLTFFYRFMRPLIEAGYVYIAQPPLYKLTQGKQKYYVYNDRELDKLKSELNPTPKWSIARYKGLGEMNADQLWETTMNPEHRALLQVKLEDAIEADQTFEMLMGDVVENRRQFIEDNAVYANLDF

SMILES	IC50 (E. coli DNA gyrase)	LE DNA Gyrase E. coli (E. coli DNA gyrase)	MIC (E. coli D22; [3])	IC50 (HepG2; [4])	IC50 [1]	solubility thermodynamic at 24 h [2]	MIC (E. coli D22; D22, read-out: MIC E. coli D22)	solubility at pH 6.8 in words [2]	IC50 (HepG2; [5])	IC50 (S. aureus DNA gyrase)
COc1ccc2nccc(CCN3CCC(NCc4ccc(OC(F)F)c(O)c4)CC3)c2n1 [Compound 20, 2-(Difluoromethoxy)-5-((1-(2-(6-methoxy-1,5-naphthyridin-4-yl)ethyl)piperidin-4-ylamino)methyl)phenol]	4.41 ± 0.16 µM	0.22	2 µg/mL (≈ 4.36 µM)	10.9 ± 0.12 µM	0.18 µM	103 µg/mL (≈ 225 µM)				
COc1ccc2nccc(CCN3CCC(NCc4ccc(F)cc4)CC3)c2n1 [Compound 12]	17 ± 1.69 µM	0.23	16 µg/mL (≈ 40.6 µM)			460 µg/mL (≈ 1170 µM)				
COc1ccc2nccc(CCN3CCC(NCc4c(C)nc5c(C)cccn45)CC3)c2n1 [Compound 6, N-((2,8-Dimethylimidazo[1,2-a]pyridin-3-yl)methyl)-1-(2-(6-methoxy-1,5-naphthyridin-4-yl)ethyl)piperidin-4-amine]	> 100 µM					797 µg/mL (≈ 1790 µM)	> 128 µg/mL			
COc1ccc2nccc(CCN3CCC(NCc4ccc(CO)cc4)CC3)c2n1 [Compound 16]	56.6 ± 3.32 µM	0.19	16 µg/mL (≈ 39.4 µM)		3.24 µM	3390 µg/mL (≈ 8330 µM)		soluble at this pH in any conceivable single-dose		
COc1ccc2nccc(CCN3CCC(NCc4cnn(C(C)C)c4)CC3)c2n1 [Compound 9, N-((1-Isopropyl-1H-pyrazol-4-yl)methyl)-1-(2-(6-methoxy-1,5-naphthyridin-4-yl)ethyl)piperidin-4-amine]	2.95 ± 0.56 µM	0.25	1 µg/mL (≈ 2.45 µM)		9.82 µM	7550 µg/mL (≈ 18500 µM)		soluble at this pH in any conceivable single-dose	> 50 µM	
COc1ccc2nccc(CCN3CCC(NCc4nc5ccccc5n4C)CC3)c2n1 [Compound 3, 1-(2-(6-Methoxy-1,5-naphthyridin-4-yl)ethyl)-N-((1-methyl-1H-benzo[d]imidazol-2-yl)methyl)piperidin-4-amine]	> 100 µM		> 128 µg/mL		1.04 µM	349 µg/mL (≈ 811 µM)				
COc1ccc2nccc(CCN3CCC(NCc4ccc(C(F)(F)F)nc4)CC3)c2n1 [Compound 21, 1-(2-(6-Methoxy-1,5-naphthyridin-4-yl)ethyl)-N-((6-(trifluoromethyl)pyridin-3-yl)methyl)piperidin-4-amine]	6.91 ± 1.62 µM	0.22	4 µg/mL (≈ 8.98 µM)		1.97 µM	209 µg/mL (≈ 469 µM)			> 50 µM	
COc1ccc2nccc(CCN3CCC(NCc4ccc(I)cc4)CC3)c2n1 [Compound 15]				~10 µM		184 µg/mL (≈ 366 µM)	0.125 µg/mL (≈ 0.249 µM)			0.011 ± 0.003 µM
COc1ccc2nccc(CCN3CCC(NC(=O)c4cn5cccc(C#N)c5n4)CC3)c2n1 [Compound 7, 8-Cyano-N-(1-(2-(6-methoxy-1,5-naphthyridin-4-yl)ethyl)piperidin-4-yl)imidazo[1,2-a]pyridine-2-carboxamide]	> 100 µM					883 µg/mL (≈ 1940 µM)	> 128 µg/mL			
COc1ccc2nccc(CCN3CCC(NCc4ccc(Cl)cc4)CC3)c2n1 [Compound 13]			2 µg/mL (≈ 4.87 µM)			119 µg/mL (≈ 290 µM)				

— publication PMC8300687, “A Fine-Tuned Lipophilicity/Hydrophilicity Ratio Governs Antibacterial Potency and Selectivity of Bifurcated Halogen Bond-Forming NBTIs” (Antibiotics, 2021)
